Data as given in US9938268B2, “C-ring modified tricyclic benzonaphthiridinone protein kinase inhibitors and use thereof” (Merck Patent GmbH, priority 2008, dated 2018).
Read-outs that look alike come from different tables or passages of the source.

Target: Aurora A (Homo sapiens (Human), UniProt O14965)
Assay: Aurora A kinase inhibition (IC50)
Assay type: biochemical

Aurora A, sequence (O14965 whole entry): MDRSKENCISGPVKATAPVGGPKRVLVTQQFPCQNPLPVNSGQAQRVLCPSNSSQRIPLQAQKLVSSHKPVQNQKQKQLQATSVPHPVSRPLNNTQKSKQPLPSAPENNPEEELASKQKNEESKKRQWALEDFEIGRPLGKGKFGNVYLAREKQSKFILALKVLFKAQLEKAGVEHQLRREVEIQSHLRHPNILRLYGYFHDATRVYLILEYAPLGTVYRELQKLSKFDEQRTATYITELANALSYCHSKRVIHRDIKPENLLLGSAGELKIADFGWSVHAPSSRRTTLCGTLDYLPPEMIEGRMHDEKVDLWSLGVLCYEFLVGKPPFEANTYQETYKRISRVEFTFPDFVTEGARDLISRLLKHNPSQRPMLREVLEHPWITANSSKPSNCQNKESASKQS

O=C(Nc1ccc(Nc2ccnc3[nH]c(=O)c4c(c23)CCCC4)cc1)c1cccc(C(F)(F)F)c1F [Compound 11, 2-Fluoro-N-[4-(6-oxo-5,6,7,8,9,10-hexahydrobenzo[c][1,8]naphthyridin-1-ylamino)-phenyl]-3-trifluoromethyl-benzamide]
IC50: 1 to 10 nM

O=C(Nc1ccc(Oc2ccnc3[nH]c(=O)c4c(c23)CCCC4)cc1)c1cccn(-c2ccc(F)cc2)c1=O [Compound 48, 1-(4-Fluoro-phenyl)-2-oxo-1,2-dihydro-pyridine-3-carboxylic acid [4-(6-oxo-5,6,7,8,9,10-hexahydro-benzo[c][1,8]naphthyridin-1-yloxy)-phenyl]-amide]
IC50: 101 to 1000 nM

O=C(Nc1ccc(Nc2ccnc3[nH]c(=O)c4n[nH]cc4c23)cc1)c1ccccc1 [Compound 33, N-(4-(4-oxo-4,5-dihydro-2H-pyrazolo[3,4-c][1,8]naphthyridin-9-ylamino)phenyl)benzamide]
IC50: 11 to 100 nM

O=c1[nH]c2nccc(Oc3ccc4c(c3)OCCN4)c2c2c1CCCC2 [Compound 47, 1-(3,4-Dihydro-2H-benzo[1,4]oxazin-7-yloxy)-7,8,9,10-tetrahydro-5H-benzo[c][1,8]naphthyridin-6-one]
IC50 (read-out: Aurora A IC50): 101 to 1000 nM

O=C(Nc1ccc(Nc2ccnc3[nH]c(=O)c4c(c23)CCCC4)c(F)c1)c1cccc(F)c1F [Compound 56, 2,3-Difluoro-N-[3-fluoro-4-(6-oxo-5,6,7,8,9,10-hexahydrobenzo[c][1,8]naphthyridin-1-ylamino)-phenyl]-1-benzamide]
IC50: 1 to 10 nM

O=C(Nc1ccc(Nc2ccnc3[nH]c(=O)c4c(c23)CCNC4)cc1)c1ccc(F)c(F)c1 [Compound 26, 3,4-Difluoro-N-[4-(9-oxo-5,6,7,8,9,10-hexahydro-1,7,10-triaza-phenanthren-4-ylamino)-phenyl]-benzamide]
IC50: 11 to 100 nM

O=C(Nc1ccc(Nc2ccnc3[nH]c(=O)c4c(c23)CCCC4)cc1)c1cc(Cl)cc(Cl)c1 [Compound 12, 3,5-Dichloro-N-[4-(6-oxo-5,6,7,8,9,10-hexahydrobenzo[c][1,8]naphthyridin-1-ylamino)-phenyl]-1-benzamide]
IC50 (read-out: Aurora A IC50): 11 to 100 nM

O=C(Nc1ccc(Nc2ccnc3[nH]c(=O)c4c(c23)CNCC4)cc1)c1ccccc1 [Compound 28, N-[4-(9-oxo-5,6,7,8,9,10-hexahydro-1,6,10-triaza-phenanthren-4-ylamino)-phenyl]-benzamide]
IC50: 101 to 1000 nM

O=C(Nc1ccc(Nc2ccnc3[nH]c(=O)c4c(c23)CCCC4)cc1)c1c(Cl)cccc1Cl [Compound 13, 2,6-Dichloro-N-[4-(6-oxo-5,6,7,8,9,10-hexahydrobenzo[c][1,8]naphthyridin-1-ylamino)-phenyl]-1-benzamide]
IC50: 1 to 10 nM

O=C(Nc1ccc(Nc2ccnc3[nH]c(=O)c4c(c23)CCCC4)cc1)c1ccc(F)cc1 [Compound 10, 4-Fluoro-N-[4-(6-oxo-5,6,7,8,9,10-hexahydrobenzo[c][1,8]naphthyridin-1-ylamino)-phenyl]-1-benzamide]
IC50: 1 to 10 nM

Cc1cccc(-n2nc(C(C)(C)C)cc2NC(=O)Nc2ccc(Oc3ccnc4[nH]c(=O)c5c(c34)CCCC5)cc2)c1 [Compound 51, 1-(5-tert-Butyl-2-m-tolyl-2H-pyrazol-3-yl)-3-[4-(6-oxo-5,6,7,8,9,10-hexahydro-benzo[c][1,8]naphthyridin-1-yloxy)-phenyl]-urea]
IC50 (read-out: Aurora A IC50): 101 to 1000 nM

COc1ccc(Nc2ccnc3[nH]c(=O)c4ccoc4c23)cc1 [Compound 38, 9-(4-Methoxy-phenylamino)-5H-furo[3,2-c][1,8]naphthyridin-4-one]
IC50: 101 to 1000 nM

O=C(Nc1ccc(Nc2ccnc3[nH]c(=O)c4c(c23)CCCC4)cc1)c1cccc(F)c1F [Compound 7, 2,3-Difluoro-N-[4-(6-oxo-5,6,7,8,9,10-hexahydrobenzo[c][1,8]naphthyridin-1-ylamino)-phenyl]-1-benzamide]
IC50: 1 to 10 nM

O=C(Nc1ccc(Nc2ccnc3[nH]c(=O)c4c(c23)CCNC4)cc1)c1ccc(F)cc1C(F)(F)F [Compound 24, 4-Fluoro-N-[4-(9-oxo-5,6,7,8,9,10-hexahydro-1,7,10-triaza-phenanthren-4-ylamino)-phenyl]-2-trifluoromethyl-benzamide]
IC50 (read-out: Aurora A IC50): 11 to 100 nM

O=C(Nc1ccc(Nc2ccnc3[nH]c(=O)c4c(c23)CCCC4)cc1)c1ccccc1 [Compound 5, N-[4-(6-Oxo-5,6,7,8,9,10-hexahydrobenzo[c][1,8]naphthyridin-1-ylamino)-phenyl]-benzamide]
IC50: 11 to 100 nM

O=c1[nH]c2nccc(Cl)c2c2cn(C(c3ccccc3)(c3ccccc3)c3ccccc3)nc12 [Compound 31, 9-Chloro-2-trityl-2H-pyrazolo[3,4-c][1,8]naphthyridin-4(5H)-one]
IC50 (read-out: Aurora A IC50): 101 to 1000 nM

O=C(Nc1ccc(Nc2ccnc3[nH]c(=O)c4c(c23)CCCC4)cc1F)c1ccc(F)cc1C(F)(F)F [Compound 54, 4-Fluoro-N-[2-fluoro-4-(6-oxo-5,6,7,8,9,10-hexahydrobenzo[c][1,8]naphthyridin-1-ylamino)-phenyl]-2-trifluoromethyl-benzamide]
IC50: 1 to 10 nM

O=C(Nc1ccc(Nc2ccnc3[nH]c(=O)c4c(c23)CCCC4)c(F)c1)c1ccc(F)c(F)c1 [Compound 55, 3,4-Difluoro-N-[3-fluoro-4-(6-oxo-5,6,7,8,9,10-hexahydrobenzo[c][1,8]naphthyridin-1-ylamino)-phenyl]-1-benzamide]
IC50: 1 to 10 nM

O=C(Nc1ccc(Nc2ccnc3[nH]c(=O)c4c(c23)CCN(Cc2ccccc2)C4)cc1)c1ccccc1 [Compound 29, N-[4-(7-Benzyl-9-oxo-5,6,7,8,9,10-hexahydro-1,7,10-triaza-phenanthren-4-ylamino)-phenyl]-benzamide]
IC50: 101 to 1000 nM

O=C(Nc1ccc(Nc2ccnc3[nH]c(=O)c4c(c23)CCCC4)c(F)c1)c1cccc(F)c1 [Compound 53, 3-Fluoro-N-[3-fluoro-4-(6-oxo-5,6,7,8,9,10-hexahydrobenzo[c][1,8]naphthyridin-1-ylamino)-phenyl]-2-benzamide]
IC50: 1 to 10 nM

O=C(Nc1ccc(Nc2ccnc3[nH]c(=O)c4c(c23)CCCC4)c(F)c1)c1ccc(F)cc1C(F)(F)F [Compound 52, 4-Fluoro-N-[3-fluoro-4-(6-oxo-5,6,7,8,9,10-hexahydrobenzo[c][1,8]naphthyridin-1-ylamino)-phenyl]-2-trifluoromethyl-benzamide]
IC50: 1 to 10 nM

O=C(c1cccn(-c2ccc(F)cc2)c1=O)N1CCOc2cc(Oc3ccnc4[nH]c(=O)c5c(c34)CCCC5)ccc21 [Compound 49, 1-{4-[1-(4-Fluoro-phenyl)-2-oxo-1,2-dihydro-pyridine-3-carbonyl]-3,4-dihydro-2H-benzo[1,4]oxazin-7-yloxy}-7,8,9,10-tetrahydro-5H-benzo[c][1,8]naphthyridin-6-one]
IC50 (read-out: Aurora A IC50): 101 to 1000 nM

O=C(Nc1ccc(Nc2ccnc3[nH]c(=O)c4c(c23)CCNC4)cc1)c1ccc(F)cc1 [Compound 25, 4-Fluoro-N-[4-(9-oxo-5,6,7,8,9,10-hexahydro-1,7,10-triaza-phenanthren-4-ylamino)-phenyl]-benzamide]
IC50: 101 to 1000 nM

Nc1ccc(Oc2ccnc3[nH]c(=O)c4c(c23)CCCC4)cc1 [Compound 46, 1-(4-Amino-phenoxy)-7,8,9,10-tetrahydro-5H-benzo[c][1,8]naphthyridin-6-one]
IC50: 101 to 1000 nM

O=C(Nc1ccc(Nc2ccnc3[nH]c(=O)c4c(c23)CCCC4)cc1)c1ccc(F)cc1C(F)(F)F [Compound 6, 4-Fluoro-N-[4-(6-oxo-5,6,7,8,9,10-hexahydrobenzo[c][1,8]naphthyridin-1-ylamino)-phenyl]-2-trifluoromethyl-1-benzamide]
IC50: 1 to 10 nM

O=c1[nH]c2nccc(Nc3ccccc3)c2c2occc12 [Compound 37, 9-Phenylamino-5H-furo[3,2-c][1,8]naphthyridin-4-one]
IC50: 101 to 1000 nM

O=c1[nH]c2nccc(Nc3ccc(Cl)cc3)c2c2occc12 [Compound 39, 9-(4-Chloro-phenylamino)-5H-furo[3,2-c][1,8]naphthyridin-4-one]
IC50: 101 to 1000 nM

COc1cccc(Nc2ccnc3[nH]c(=O)c4ccoc4c23)c1 [Compound 40, 9-(3-Methoxy-phenylamino)-5H-furo[3,2-c][1,8]naphthyridin-4-one]
IC50: 101 to 1000 nM

O=C(Nc1ccc(Nc2ccnc3[nH]c(=O)c4c(c23)CCCC4)cc1)c1cc(F)cc(F)c1 [Compound 9, 3,5-Difluoro-N-[4-(6-oxo-5,6,7,8,9,10-hexahydrobenzo[c][1,8]naphthyridin-1-ylamino)-phenyl]-1-benzamide]
IC50: 1 to 10 nM

O=C(Nc1ccc(Nc2ccnc3[nH]c(=O)c4ccoc4c23)cc1)c1ccccc1 [Compound 36, N-[4-(4-oxo-4,5-dihydro-furo[3,2-c][1,8]naphthyridin-9-ylamino)-phenyl]-benzamide]
IC50: 11 to 100 nM

O=C(Nc1ccc(Nc2ccnc3[nH]c(=O)c4c(c23)CCCC4)cc1)c1ccc(F)c(F)c1 [Compound 8, 3,4-Difluoro-N-[4-(6-oxo-5,6,7,8,9,10-hexahydrobenzo[c][1,8]naphthyridin-1-ylamino)-phenyl]-1-benzamide]
IC50: 1 to 10 nM

O=C(Nc1ccc(Nc2ccnc3[nH]c(=O)c4c(c23)CCNC4)cc1)c1ccccc1 [Compound 27, N-[4-(9-oxo-5,6,7,8,9,10-hexahydro-1,7,10-triaza-phenanthren-4-ylamino)-phenyl]-benzamide]
IC50: 101 to 1000 nM

O=C(Nc1ccc(Nc2ccnc3[nH]c(=O)c4n[nH]cc4c23)cc1)c1ccc(F)cc1C(F)(F)F [Compound 34, 4-fluoro-N-(4-(4-oxo-4,5-dihydro-2H-pyrazolonaphthyridin-9-ylamino)phenyl)-2-(trifluoromethyl)benzamide]
IC50: 1 to 10 nM
